≈ marks a conversion by molar mass, not a printed value. Calls of active or inactive are those of the source. No cut-off for these calls is given here.
Experiments:
[1] = (§1) Intrinsic clearance in mouse liver microsomes at […] preincubated for 5 mins followed by NADPH addition measured by LC-MS/MS analysis; assay type: ADME, microsome; conditions: liver microsomes, read-out: CLH
[2] = Drug metabolism in mouse liver microsomes at […] preincubated for 5 mins followed by NADPH addition measured after 30 mins by LC-MS/MS analysis; assay type: ADME, microsome; conditions: read-out: Drug metabolism
[3] = Solubility of the compound in buffer
[4] = Apparent permeability across apical to basolateral side in human Caco2 cells at 10 uM after 60 mins by LC-MS/MS analysis; conditions: Caco-2
[5] = Apparent permeability across basolateral to apical side in human Caco2 cells at 10 uM after 60 mins by LC-MS/MS analysis; conditions: Caco-2
[6] = Efflux ratio of permeability in human Caco2 cells at 10 uM after 60 mins by LC-MS/MS analysis; conditions: Caco-2
[7] = Apparent permeability across apical to basolateral side in human Caco2 cells at 2 uM after 2 hrs by LC-MS/MS analysis; assay type: ADME, cell-based; conditions: Caco-2
[8] = Apparent permeability across basolateral to apical side in human Caco2 cells at 2 uM after 2 hrs by LC-MS/MS analysis; assay type: ADME, cell-based; conditions: Caco-2
[9] = Efflux ratio of apparent permeability in human Caco2 cells at 2 uM after 2 hrs by LC-MS/MS analysis; conditions: Caco-2
[10] = molecular target: Oxidized purine nucleoside triphosphate hydrolase (Homo sapiens) (UniProt P36639)
Liver = test: as §1; assay type: ADME, microsome; conditions: microsomes, 1000 µM
[11] = molecular target: Oxidized purine nucleoside triphosphate hydrolase (Homo sapiens) (UniProt P36639); test: Inhibition of human full length MTH1 at 20 uM using 8-Oxo-2-dGTP as substrate preincubated for 15 mins followed substrate addition measured after 1 hr by PPilight pyrophosphate-detection based assay

SMILES | microsomal CLint at 1000 µM [1] [µL/min/mg] | metabolised at 0.5 h [2] [%] | solubility [3] [µM] | Papp A→B at 1 h, 10 µM [4] [×10⁻⁶ cm/s] | Papp B→A at 1 h, 10 µM [5] [×10⁻⁶ cm/s] | efflux ratio at 1 h, 10 µM [6] | other results
O=C(NC1COC1)c1cc2c(N3CCCC3c3cccnc3)ccnc2[nH]1 (centres undefined) | 24 | 29 |  |  |  |  | 
O=C(NC1CC1)c1cc2c(N3CCCC3c3ccccn3)ccnc2[nH]1 (centres undefined) | 44 | 50 | 250 (≈ 86.9 µg/mL) | 13 | 76 | 5.7 | 
CCNC(=O)c1cc2c(N3CCOCC3C3CC3)ccnc2[nH]1 (centres undefined) | 45 | 48 | 500 (≈ 157 µg/mL) |  |  |  | Papp A→B at 2 h, 2 µM [7]: 24 ×10⁻⁶ cm/s; Papp B→A at 2 h, 2 µM [8]: 79 ×10⁻⁶ cm/s; efflux ratio at 2 h, 2 µM [9]: 3.3
CCOC(=O)c1ccnc2[nH]ccc12 |  |  | 2000 (≈ 380 µg/mL) |  |  |  | 
c1ccc(C2CCCN2c2ccnc3[nH]ccc23)cc1 (centres undefined) | 244 | 97 | 250 (≈ 65.8 µg/mL) | 69 | 46 | 0.7 | 
CCNC(=O)c1cc2c(N3CCOCC3c3ccccc3)ccnc2[nH]1 (centres undefined) | 156 | 90 | 250 (≈ 87.6 µg/mL) |  |  |  | Papp A→B at 2 h, 2 µM [7]: 63 ×10⁻⁶ cm/s; Papp B→A at 2 h, 2 µM [8]: 89 ×10⁻⁶ cm/s; efflux ratio at 2 h, 2 µM [9]: 1.4
c1cc(-c2cnc3[nH]ccc3c2)c2cc[nH]c2n1 |  |  | 500 (≈ 117 µg/mL) |  |  |  | ΔTm [10]: 7.9 °C
O=C(NC1COC1)c1cc2c(N3CCCC3c3ccccn3)ccnc2[nH]1 (centres undefined) | 25 | 33 | 250 (≈ 90.9 µg/mL) | 7 | 46 | 6.7 | 
c1cncc(-c2ccnc3[nH]ccc23)c1 |  |  | 2000 (≈ 390 µg/mL) |  |  |  | ΔTm [10]: 8.2 °C
Clc1cccc(-c2ccnc3[nH]c(-c4cnco4)cc23)c1 |  |  | 50 (≈ 14.8 µg/mL) |  |  |  | 
CCNC(=O)c1cc2c(N3CCCC3c3cccnc3)ccnc2[nH]1 (centres undefined) | 49 | 52 | 500 (≈ 168 µg/mL) | 4 | 31 | 8.3 | 
CCNC(=O)c1cc2c(-c3cccc(Cl)c3)ccnc2[nH]1 |  |  | 250 (≈ 74.9 µg/mL) |  |  |  | 
Clc1cccc(-c2ccnc3[nH]ncc23)c1 |  |  | 100 (≈ 23 µg/mL) |  |  |  | 
CNC(=O)c1cc2c(-c3cccc(Cl)c3)ccnc2[nH]1 |  |  | 250 (≈ 71.4 µg/mL) |  |  |  | 
OCc1cc2c(-c3cccc(Cl)c3)ccnc2[nH]1 |  |  | 10 (≈ 2.59 µg/mL) |  |  |  | 
c1cncc(C2CCCN2c2ccnc3[nH]ncc23)c1 (centres undefined) | 45 | 54 | 1000 (≈ 265 µg/mL) | 44 | 50 | 1.1 | 
c1ccc2c(c1)OCCN2c1ccnc2[nH]ccc12 |  | 100 | 250 (≈ 62.8 µg/mL) | 39 | 35 | 0.9 | microsomal intrinsic clearance (Liver): Unstable
NC(=O)c1cc2c(-c3cccc(Cl)c3)ccnc2[nH]1 |  |  | 100 (≈ 27.2 µg/mL) |  |  |  | 

SMILES | microsomal CLint at 1000 µM [1] [µL/min/mg] | metabolised at 0.5 h [2] [%] | solubility [3] [µM] | Papp A→B at 1 h, 10 µM [4] [×10⁻⁶ cm/s] | Papp B→A at 1 h, 10 µM [5] [×10⁻⁶ cm/s] | efflux ratio at 1 h, 10 µM [6] | other results
Clc1cccc(-c2ccnc3[nH]ccc23)c1 |  |  | 250 (≈ 57.2 µg/mL) |  |  |  | 
N#Cc1cc2c(-c3cccc(Cl)c3)ccnc2[nH]1 |  |  | 250 (≈ 63.4 µg/mL) |  |  |  | 
c1ccc(C2CN(c3ccnc4[nH]ccc34)CCO2)cc1 (centres undefined) |  |  | 250 (≈ 69.8 µg/mL) |  |  |  | 
CCNC(=O)c1cc2c(N3CCCC3c3ccccn3)ccnc2[nH]1 (centres undefined) | 48 | 53 | 500 (≈ 168 µg/mL) | 15 | 72 | 4.7 | 
CNC(=O)c1cc2c(-c3cccnc3)ccnc2[nH]1 |  |  | 1000 (≈ 252 µg/mL) |  |  |  | ΔTm [10]: 14.4 °C
CN(C)C(=O)c1cc2c(-c3cccc(Cl)c3)ccnc2[nH]1 |  |  | 250 (≈ 74.9 µg/mL) |  |  |  | 
c1ccc(C2CCCN2c2ccnc3[nH]ncc23)cc1 (centres undefined) | 222 | 99 | 250 (≈ 66.1 µg/mL) | 74 | 63 | 0.8 | 
c1ccc(C2COCCN2c2ccnc3[nH]ncc23)cc1 (centres undefined) | 232 | 97 | 1000 (≈ 280 µg/mL) | 88 | 73 | 0.8 | 
Cc1cc2c(-c3cccc(Cl)c3)ccnc2[nH]1 |  |  | 50 (≈ 12.1 µg/mL) |  |  |  | 
c1cnc2c(c1)CCN2c1ccnc2[nH]ccc12 |  |  | 250 (≈ 59.1 µg/mL) |  |  |  | 
CCNC(=O)c1cc2c(N3CCCC3c3ccccc3)ccnc2[nH]1 (centres undefined) | 130 | 85 | 100 (≈ 33.4 µg/mL) | 41 | 63 | 1.6 | 
CCNC(=O)c1cc2c(N3CCCC3C(C)(C)OC)ccnc2[nH]1 (centres undefined) | 54 | 56 | 1000 (≈ 330 µg/mL) |  |  |  | Papp A→B at 2 h, 2 µM [7]: 170 ×10⁻⁶ cm/s; Papp B→A at 2 h, 2 µM [8]: 225 ×10⁻⁶ cm/s; efflux ratio at 2 h, 2 µM [9]: 1.3
COC(C)(C)C1CCCN1c1ccnc2[nH]ncc12 (centres undefined) | 153 | 92 | 1000 (≈ 260 µg/mL) | 75 | 66 | 0.9 | 
CCNC(=O)c1cc2c(N3CCOC[C@@H]3C)ccnc2[nH]1 | 36 | 43 | 500 (≈ 144 µg/mL) |  |  |  | Papp A→B at 2 h, 2 µM [7]: 148 ×10⁻⁶ cm/s; Papp B→A at 2 h, 2 µM [8]: 209 ×10⁻⁶ cm/s; ΔTm [10]: 21 °C
c1ccc2c(c1)CCN(c1ccnc3[nH]ccc13)C2 |  |  | 10 (≈ 2.49 µg/mL) |  |  |  | 
O=C(NC1CC1)c1cc2c(-c3cccc(Cl)c3)ccnc2[nH]1 | 115 | 83 | 100 (≈ 31.2 µg/mL) | 18 | 18 | 1 | 
CCNC(=O)c1cc2c(N3CCOC[C@@H]3C)ccnc2n1C |  |  |  |  |  |  | inhibition [11]: inactive

— ChEMBL document CHEMBL4033791, “Creation of a Novel Class of Potent and Selective MutT Homologue 1 (MTH1) Inhibitors Using Fragment-Based Screening and Structure-Based Drug Design” (J Med Chem, 2018)
